pIC50: −log10 of the molar value.
How the values were obtained:
IKKε = IKKε (Homo sapiens (Human), UniProt Q14164); assay: TR-FRET kinase assay, IKKε; assay type: biochemical; conditions: full length recombinant IKKε 0.3 nM, 2x Km ATP, 1 μM peptide, 240 min at 25° C.; geometric mean of minimum four determinations
Text: Biological Assay for TBK1 and IKKs:

TBK1 = TBK1 (Homo sapiens (Human), UniProt Q9UHD2); assay: TR-FRET kinase assay, TBK1; conditions: read-out: TBK1-IC50; full length recombinant TBK1 2.5 nM, 2x Km ATP, 1 μM peptide, 240 min at 25° C.; geometric mean of minimum four determinations
Chain of TBK1 (Q9UHD2 whole entry): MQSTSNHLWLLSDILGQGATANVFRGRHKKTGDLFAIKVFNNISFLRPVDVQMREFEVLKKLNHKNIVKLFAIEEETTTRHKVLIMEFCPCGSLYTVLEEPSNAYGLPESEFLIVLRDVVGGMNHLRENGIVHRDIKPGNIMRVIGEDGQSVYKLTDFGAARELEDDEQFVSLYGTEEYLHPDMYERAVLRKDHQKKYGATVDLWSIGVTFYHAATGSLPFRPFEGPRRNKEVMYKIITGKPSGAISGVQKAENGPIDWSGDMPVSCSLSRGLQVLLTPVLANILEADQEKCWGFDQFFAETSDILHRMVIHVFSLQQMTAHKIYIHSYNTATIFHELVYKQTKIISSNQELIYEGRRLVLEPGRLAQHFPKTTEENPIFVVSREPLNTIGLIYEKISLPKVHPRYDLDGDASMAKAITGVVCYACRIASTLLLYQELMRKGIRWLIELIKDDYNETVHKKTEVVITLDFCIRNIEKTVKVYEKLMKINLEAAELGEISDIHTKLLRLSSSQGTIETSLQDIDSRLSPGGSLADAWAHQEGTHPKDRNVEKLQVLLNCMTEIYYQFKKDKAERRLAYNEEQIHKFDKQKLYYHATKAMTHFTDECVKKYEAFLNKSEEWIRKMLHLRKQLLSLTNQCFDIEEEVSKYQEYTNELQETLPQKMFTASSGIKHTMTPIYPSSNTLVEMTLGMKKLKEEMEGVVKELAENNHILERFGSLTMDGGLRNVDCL

Chain of IKKε (Q14164 whole entry): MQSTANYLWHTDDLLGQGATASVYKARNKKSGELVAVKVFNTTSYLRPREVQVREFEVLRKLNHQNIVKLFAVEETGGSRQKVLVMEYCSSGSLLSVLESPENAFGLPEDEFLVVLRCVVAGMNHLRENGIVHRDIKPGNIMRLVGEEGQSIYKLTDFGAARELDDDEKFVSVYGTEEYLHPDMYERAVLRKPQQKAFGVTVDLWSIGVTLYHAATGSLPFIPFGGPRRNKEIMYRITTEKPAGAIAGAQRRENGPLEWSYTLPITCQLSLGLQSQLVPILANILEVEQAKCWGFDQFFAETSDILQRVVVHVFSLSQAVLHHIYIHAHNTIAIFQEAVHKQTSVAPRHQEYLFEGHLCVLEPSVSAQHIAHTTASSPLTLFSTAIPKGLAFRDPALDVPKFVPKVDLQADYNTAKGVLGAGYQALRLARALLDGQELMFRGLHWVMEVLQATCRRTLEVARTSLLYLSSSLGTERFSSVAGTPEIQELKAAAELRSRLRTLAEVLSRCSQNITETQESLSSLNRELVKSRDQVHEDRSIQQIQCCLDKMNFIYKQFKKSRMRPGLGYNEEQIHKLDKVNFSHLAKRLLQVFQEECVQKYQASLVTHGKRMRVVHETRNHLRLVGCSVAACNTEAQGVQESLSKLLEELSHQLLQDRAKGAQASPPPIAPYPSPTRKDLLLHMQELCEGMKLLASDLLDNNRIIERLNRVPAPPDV

Row | Compound | pIC50 (IKKε) | pIC50 (TBK1)
1 | N#Cc1cc(-c2ccnc3[nH]c(C(=O)N4CCCC4)cc23)ccc1OC1CCOCC1 [Example 117, 5-(2-(pyrrolidine-1-carbonyl)-1H-pyrrolo[2,3-b]pyridin-4-yl)-2-((tetrahydro-2H-pyran-4-yl)oxy)benzonitrile] | 6.58 | 6.42
2 | COC(=O)c1ccc(-c2cc3c(-c4ccc(OC5CCN(C(=O)CO)CC5)c(C#N)c4)ncnc3[nH]2)cc1 [Example 159, Methyl 4-(4-(3-cyano-4-((1-(2-hydroxyacetyl)piperidin-4-yl)oxy)phenyl)-7H-pyrrolo[2,3-d]pyrimidin-6-yl)benzoate] | 8.29 | 8.66
3 | CC(C)(O)c1ccc(-c2cc3c(-c4ccc(CN5CCOCC5)c(C#N)c4)ncnc3[nH]2)cc1 [Example 111, 5-(6-(4-(2-hydroxypropan-2-yl)phenyl)-7H-pyrrolo[2,3-d]pyrimidin-4-yl)-2-(morpholinomethyl)benzonitrile] | 6.55 | 7.43
4 | CN1CCN(c2ccc(-c3cc4c(-c5ccc(OC6CCOCC6)c(C#N)c5)ccnc4[nH]3)cc2)CC1 [Example 82, 5-(2-(4-(4-methylpiperazin-1-yl)phenyl)-1H-pyrrolo[2,3-b]pyridin-4-yl)-2-((tetrahydro-2H-pyran-4-yl)oxy)benzonitrile] | 9.54 | 9.05
5 | Cn1nccc1-c1cc2c(-c3ccc(OC4CCOCC4)c(C#N)c3)ccnc2[nH]1 [Example 181, 5-(2-(1-methyl-1H-pyrazol-5-yl)-1H-pyrrolo[2,3-b]pyridin-4-yl)-2-((tetrahydro-2H-pyran-4-yl)oxy)benzonitrile] | 7.46 | 7.62
6 | N#Cc1cc(-c2ncnc3[nH]c(-c4ccc(N5CCN(C6COC6)CC5)cc4)cc23)ccc1OC1CCOCC1 [Example 105, 5-(6-(4-(4-(oxetan-3-yl)piperazin-1-yl)phenyl)-7H-pyrrolo[2,3-d]pyrimidin-4-yl)-2-((tetrahydro-2H-pyran-4-yl)oxy)benzonitrile] | 8.26 | 9.06
7 | CN1CCN(c2ccc(-c3nc4c(-c5ccc(OC6CCOCC6)c(C#N)c5)ncnc4[nH]3)cc2)CC1 [Example 212, 5-(8-(4-(4-methylpiperazin-1-yl)phenyl)-9H-purin-6-yl)-2-((tetrahydro-2H-pyran-4-yl)oxy)benzonitrile] | 8.97 | 8.94
8 | N#Cc1nc(-c2ccnc3[nH]c(-c4ccc(N5CCOCC5)cc4)nc23)ccc1OC1CCOCC1 [Example 304, 6-(2-(4-morpholinophenyl)-3H-imidazo[4,5-b]pyridin-7-yl)-3-((tetrahydro-2H-pyran-4-yl)oxy)picolinonitrile] | 7.73 | 8.03
9 | CC1CN(c2ccc(-c3nc4c(-c5ccc(OC6CCN(C(=O)CO)CC6)c(C#N)c5)ncnc4[nH]3)cc2)CCN1CCF (stereo not drawn) [Example 256, 5-(8-(4-(4-(2-fluoroethyl)-3-methylpiperazin-1-yl)phenyl)-9H-purin-6-yl)-2-((1-(2-hydroxyacetyl)piperidin-4-yl)oxy)benzonitrile] | 8.75 | 8.62
10 | N#Cc1cc(-c2ncnc3[nH]c(-c4ccc(N5CCOCC5)cc4)nc23)ccc1OC1CCN(C(=O)CO)CC1 [Example 205, 2-((1-(2-hydroxyacetyl)piperidin-4-yl)oxy)-5-(8-(4-morpholinophenyl)-9H-purin-6-yl)benzonitrile] | 8.33 | 8.68
11 | CN(C)CC(=O)N1CC[C@@H](Oc2ccc(-c3ccnc4[nH]c(-c5ccc(N6CCOCC6)cc5)cc34)cc2C#N)C1 [Example 30, (R)-2-((1-(2-(dimethylamino)acetyl)pyrrolidin-3-yl)oxy)-5-(2-(4-morpholinophenyl)-1H-pyrrolo[2,3-b]pyridin-4-yl)benzonitrile] | 6.87 | 7.15
12 | COc1cc(-c2cc3c(-c4ccc(OC5CCN(C(=O)CO)CC5(F)F)c(C#N)c4)ncnc3[nH]2)ccc1N1CCN(C2COC2)CC1 (stereo not drawn) [Example 141, 2-((3,3-difluoro-1-(2-hydroxyacetyl)piperidin-4-yl)oxy)-5-(6-(3-methoxy-4-(4-(oxetan-3-yl)piperazin-1-yl)phenyl)-7H-pyrrolo[2,3-d]pyrimidin-4-yl)benzonitrile] | 9.16 | 9.12
